# Columns and labels:
# [1] = Half-life in aqueous solution(pH 7.4).; format: ADME
# Dipeptidyl peptidase 4 = Dipeptidyl peptidase 4 (Homo sapiens, UniProt P27487); assay: In vitro test for inhibitory activity against human dipeptidyl peptidase IV.
# Dipeptidyl peptidase 4, sequence (P27487 whole entry): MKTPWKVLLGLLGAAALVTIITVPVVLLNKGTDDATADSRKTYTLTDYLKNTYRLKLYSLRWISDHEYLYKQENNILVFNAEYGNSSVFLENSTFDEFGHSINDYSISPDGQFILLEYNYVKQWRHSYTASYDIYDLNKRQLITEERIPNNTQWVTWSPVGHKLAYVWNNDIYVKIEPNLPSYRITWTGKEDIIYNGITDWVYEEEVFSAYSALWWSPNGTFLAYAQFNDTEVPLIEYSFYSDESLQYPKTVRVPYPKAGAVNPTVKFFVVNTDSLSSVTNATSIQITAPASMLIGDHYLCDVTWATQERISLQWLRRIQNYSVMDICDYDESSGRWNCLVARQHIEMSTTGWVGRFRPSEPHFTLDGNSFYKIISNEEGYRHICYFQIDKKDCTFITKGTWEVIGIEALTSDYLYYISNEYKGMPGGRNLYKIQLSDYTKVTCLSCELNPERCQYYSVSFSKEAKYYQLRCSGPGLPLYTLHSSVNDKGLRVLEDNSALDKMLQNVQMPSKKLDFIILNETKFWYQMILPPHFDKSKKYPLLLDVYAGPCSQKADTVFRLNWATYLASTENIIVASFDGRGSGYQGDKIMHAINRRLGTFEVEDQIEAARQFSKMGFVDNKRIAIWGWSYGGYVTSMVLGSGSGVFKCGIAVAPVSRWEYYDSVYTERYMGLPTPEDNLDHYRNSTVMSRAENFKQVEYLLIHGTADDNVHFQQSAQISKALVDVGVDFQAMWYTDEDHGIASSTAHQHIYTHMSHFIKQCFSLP
compound,measurement,setting,value
N#C[C@@H]1CCCN1C(=O)[C@@H]1CCCN1,half-life,[1],7.5 h
C[C@H](N)C(=O)N1CCC[C@H]1B(O)O,half-life,[1],0.5 h
N[C@@H](CC(=O)O)C(=O)N1CCCC1,Ki,Dipeptidyl peptidase 4,14500 nM
C[C@H](N)C(=O)N1CCCC1,Ki,Dipeptidyl peptidase 4,7000 nM
C[C@@H](O)[C@H](N)C(=O)N1CCCC1,Ki,Dipeptidyl peptidase 4,4900 nM
NCCC[C@H](NC(=O)OCc1ccccc1)C(=O)N1CCCC1,Ki,Dipeptidyl peptidase 4,910 nM
CC[C@H](C)[C@H](N)C(=O)N1CCC[C@H]1C#N,half-life,[1],48 h
N#C[C@@H]1CCCN1C(=O)[C@@H](N)CCCCN,Ki,Dipeptidyl peptidase 4,5.2 nM
same,half-life,[1],24 h
CC(C)(C)[C@H](N)C(=O)N1CCC[C@H]1C#N,half-life,[1],> 48 h
CNC(C(=O)N1CCCC1)[C@H](C)O (some centres not stated),Ki,Dipeptidyl peptidase 4,900 nM
N[C@@H](CCC(=O)O)C(=O)N1CCCC1,Ki,Dipeptidyl peptidase 4,2000 nM
O=C([C@H](CO)NCc1ccccc1)N1CCCC1,Ki,Dipeptidyl peptidase 4,6000 nM
NCCCC[C@H](NC(=O)OCc1ccccc1)C(=O)N1CCCC1,Ki,Dipeptidyl peptidase 4,520 nM
NC(C(=O)N1CCCC1)C1CCCC1 (configuration not stated),Ki,Dipeptidyl peptidase 4,210 nM
N[C@@H](CCC(=O)OCc1ccccc1)C(=O)N1CCCC1,Ki,Dipeptidyl peptidase 4,2700 nM
CC(C)(C)[C@H](N)C(=O)N1CCCC1,Ki,Dipeptidyl peptidase 4,880 nM
N[C@H](C(=O)N1CCCC1)c1ccccc1,Ki,Dipeptidyl peptidase 4,5300 nM
N#C[C@@H]1CCCN1C(=O)[C@@H](N)C1CCCCC1,half-life,[1],> 48 h
O=C([C@@H]1CCCN1)N1CCC[C@H]1B(O)O,Ki,Dipeptidyl peptidase 4,3 nM
same,half-life,[1],1.5 h
CCCC[C@H](N)C(=O)N1CCCC1,Ki,Dipeptidyl peptidase 4,1200 nM

# From ChEMBL document CHEMBL1128915, “2-cyanopyrrolidides as potent, stable inhibitors of dipeptidyl peptidase IV” (Bioorg Med Chem Lett, 1996)
